Our source for the IC50 values is patent publication US8486961B2, “Pyrrolo[4,3,2-de]quinolin-8-amine compounds and methods of their preparation and use” (Wyeth LLC, priority 2008, dated 2013).

Like-named read-outs stand apart in the source and are kept apart here.

For one assay, the system named is MDA468 cells. Put plainly: In vitro cell growth assay (MTS), MDA468. It counts as cell-based, human. On the procedure:
(§1) Cells of human tumor lines LNCap and MDA468 were plated in 96-well culture plates at approximately 3000 cells per well. One day following plating, various doses of mTOR inhibitors were added to cells. Three days after drug treatment, viable cell densities were determined by metabolic conversion (by viable cells) of the dye MTS, a well-established cell proliferation assay. The assays were performed using an assay kit purchased from Promega Corp. (Madison, Wis.) following the protocol supplied with the kit. The MTS assay results were read in a 96-well plate reader by measuring absorbance at 490 nm. The effect of each treatment was calculated as percent of control growth relative to the vehicle-treated cells grown in the same culture plate. The drug concentration that conferred 50% inhibition of growth was determined as IC50 (μM).

The target of another assay is T1, mTOR (Homo sapiens, UniProt P42345).
T1 construct: FLAG
Put plainly: mTOR kinase assay (DELFIA, purified enzyme). It counts as biochemical. The conditions noted are these: purified FLAG-TOR, 100 μM ATP, His6-S6K substrate; * = compounds 4 and 5 screened as a mixture. On the procedure: The routine human TOR assays with purified enzyme were performed in 96-well plates by DELFIA format as follows. Enzymes were first diluted in kinase assay buffer (10 mM Hepes (pH 7.4), 50 mM NaCl, 50 mM β-glycerophosphate, 10 mM MnCl2, 0.5 mM DTT, 0.25 μM microcystin LR, and 100 μg/mL BSA). To each well, 12 μL of the diluted enzyme were mixed briefly with 0.5 μL test inhibitor or control vehicle dimethylsulfoxide (DMSO). The kinase reaction was initiated by adding 12.5 μL kinase assay buffer containing ATP and His6-S6K to give a final reaction volume of 25 μL containing 800 ng/mL FLAG-TOR, 100 μM ATP and 1.25 μM His6-S6K. The reaction plate was incubated for 2 hours (linear at 1-6 hours) at room temperature with gentle shaking and then terminated by adding 25 μL Stop buffer (20 mM Hepes (pH 7.4), 20 mM EDTA, 20 mM EGTA). The DELFIA detection of the phosphorylated (Thr-389) His6-S6K was performed at room temperature using a monoclonal anti-P(T389)-p70S6K antibody (1A5, Cell Signaling) labeled with Europium-N1-ITC (Eu) (10.4 Eu per antibody, PerkinElmer). The DELFIA Assay buffer and Enhancement solution were purchased from PerkinElmer. 45 μL of the terminated kinase reaction mixture was transferred to a MaxiSorp plate (Nunc) containing 55 μL PBS. The His6-S6K was allowed to attach for 2 hours after which the wells were aspirated and washed once with PBS. 100 μL of DELFIA Assay buffer with 40 ng/mL Eu-P(T389)—S6K antibody was added. The antibody binding was continued for 1 hour with gentle agitation. The wells were then aspirated and washed 4 times with PBS containing 0.05% Tween-20 (PBST). 100 μL of DELFIA Enhancement solution was added to each well and the plates were read in a PerkinElmer Victor model plate reader. Data obtained were used to calculate enzymatic activity and enzyme inhibition by potential inhibitors. mTOR IC50 data (reported in μM) is provided in Table 1.

A further assay relates to LNCap cells. Nature of the assay: In vitro cell growth assay (MTS), LNCap. It counts as cell-based, human. How it is done: as §1
Where [1] appears, read: 72 h, MDA468 human tumor line, 3 days treatment, MTS, * = compounds 4 and 5 screened as a mixture, read-out: MDA 468 IC50.
Where [2] appears, read: 72 h, LNCap human tumor line, 3 days treatment, MTS, * = compounds 4 and 5 screened as a mixture.
[3] abbreviates: Homo sapiens, LNCap cell growth.

As to `CCC(=O)Nc1cc(N)c2c3c(cc(C(=O)/C=C/OC)nc13)C=N2` [Compound 1, (E)-N-(8-amino-4-(3-methoxyacryloyl)pyrrolo[4,3,2-de]quinolin-6-yl)-propionamide], the IC50 is 85 nM in the assay on MDA468 cells (setting [1]); 50 to 800 nM in the assay on MDA468 cells (Homo sapiens, Example 8); 1.5 nM on mTOR; 48 nM in the assay with LNCap cells (setting [2]); 20 to 300 nM with LNCap cells (setting [3]).
In the same order, the values of `CO/C=C/C(=O)c1cc2c3c(c(N)cc(NC(=O)C(C)C)c3n1)N=C2` [Compound 2, (E)-N-(8-amino-4-(3-methoxyacryloyl)pyrrolo[4,3,2-de]quinolin-6-yl)isobutyramide] are 58 nM, 50 to 800 nM, 0.8 nM, 22 nM and 20 to 300 nM.
Regarding `CCCC(=O)Nc1cc(N)c2c3c(cc(C(=O)CCO)nc13)C=N2` [Compound 3, N-(8-amino-4-(3-hydroxypropanoyl)pyrrolo[4,3,2-de]quinolin-6-yl)butyramide], the IC50 is above 12000 nM in the assay on MDA468 cells (setting [1]), above 4000 nM at mTOR and above 12000 nM in the assay with LNCap cells (setting [2]).
As for `CO/C=C/C(=O)c1cc2c3c(c(N)cc(NC(=O)CC(C)C)c3n1)N=C2` [Compound 4, (E)-N-(8-amino-4-(3-methoxyacryloyl)pyrrolo[4,3,2-de]quinolin-6-yl)-3-methylbutanamide], the IC50 in the assay with MDA468 cells (setting [1]) was 700 nM; in the assay on MDA468 cells (Homo sapiens, Example 8) it was 50 to 800 nM; at mTOR, 1.8 nM; in the assay with LNCap cells (setting [2]), 230 nM; with LNCap cells (setting [3]), 20 to 300 nM.
Take `CCC(C)C(=O)Nc1cc(N)c2c3c(cc(C(=O)/C=C/OC)nc13)C=N2` (stereo not drawn) [Compound 5, (E)-N-(8-amino-4-(3-methoxyacryloyl)pyrrolo[4,3,2-de]quinolin-6-yl)-2-methylbutanamide]: the IC50 is 700 nM in the assay on MDA468 cells (setting [1]), 1.8 nM on mTOR and 230 nM in the assay on LNCap cells (setting [2]).
`CC(C)C(=O)Nc1cc(N)c2c3c(cc(C(=O)CCO)nc13)C=N2` [Compound 6, N-(8-amino-4-(3-hydroxypropanoyl)pyrrolo[4,3,2-de]quinolin-6-yl)isobutyramide]: the results for the IC50 with MDA468 cells (setting [1]), on mTOR and with LNCap cells (setting [2]) were 1200 nM, above 4000 nM and 6500 nM, respectively.
In the same order, the values of `CCC(=O)Nc1cc(N)c2c3c(cc(C(=O)CCO)nc13)C=N2` [Compound 7, N-(8-amino-4-(3-hydroxypropanoyl)pyrrolo[4,3,2-de]quinolin-6-yl)propionamide] are 400 nM, above 4000 nM and 5000 nM.
On the same counts, the results for `CC(C)CC(=O)Nc1cc(N)c2c3c(cc(C(=O)CCO)nc13)C=N2` [Compound 8, N-(8-amino-4-(3-hydroxypropanoyl)pyrrolo[4,3,2-de]quinolin-6-yl)-3-methylbutanamide] are 3500 nM, 1500 nM and 2900 nM.
In the same order, the values of `CCC(C)C(=O)Nc1cc(N)c2c3c(cc(C(=O)CCO)nc13)C=N2` (stereo not drawn) [Compound 9, N-(8-amino-4-(3-hydroxypropanoyl)pyrrolo[4,3,2-de]quinolin-6-yl)-2-methylbutanamide] are 7600 nM, 3200 nM and 10000 nM.

A word on the IC50: it is the point on the concentration scale where inhibition reaches its midpoint.
